The values below are quoted from earlier work in patent US7208285B2 (priority 2001, dated 2007).

In this data set the target is BoNT/A (Clostridium botulinum, UniProt P0DPI1).
BoNT/A, sequence (P0DPI1 whole entry, looked up): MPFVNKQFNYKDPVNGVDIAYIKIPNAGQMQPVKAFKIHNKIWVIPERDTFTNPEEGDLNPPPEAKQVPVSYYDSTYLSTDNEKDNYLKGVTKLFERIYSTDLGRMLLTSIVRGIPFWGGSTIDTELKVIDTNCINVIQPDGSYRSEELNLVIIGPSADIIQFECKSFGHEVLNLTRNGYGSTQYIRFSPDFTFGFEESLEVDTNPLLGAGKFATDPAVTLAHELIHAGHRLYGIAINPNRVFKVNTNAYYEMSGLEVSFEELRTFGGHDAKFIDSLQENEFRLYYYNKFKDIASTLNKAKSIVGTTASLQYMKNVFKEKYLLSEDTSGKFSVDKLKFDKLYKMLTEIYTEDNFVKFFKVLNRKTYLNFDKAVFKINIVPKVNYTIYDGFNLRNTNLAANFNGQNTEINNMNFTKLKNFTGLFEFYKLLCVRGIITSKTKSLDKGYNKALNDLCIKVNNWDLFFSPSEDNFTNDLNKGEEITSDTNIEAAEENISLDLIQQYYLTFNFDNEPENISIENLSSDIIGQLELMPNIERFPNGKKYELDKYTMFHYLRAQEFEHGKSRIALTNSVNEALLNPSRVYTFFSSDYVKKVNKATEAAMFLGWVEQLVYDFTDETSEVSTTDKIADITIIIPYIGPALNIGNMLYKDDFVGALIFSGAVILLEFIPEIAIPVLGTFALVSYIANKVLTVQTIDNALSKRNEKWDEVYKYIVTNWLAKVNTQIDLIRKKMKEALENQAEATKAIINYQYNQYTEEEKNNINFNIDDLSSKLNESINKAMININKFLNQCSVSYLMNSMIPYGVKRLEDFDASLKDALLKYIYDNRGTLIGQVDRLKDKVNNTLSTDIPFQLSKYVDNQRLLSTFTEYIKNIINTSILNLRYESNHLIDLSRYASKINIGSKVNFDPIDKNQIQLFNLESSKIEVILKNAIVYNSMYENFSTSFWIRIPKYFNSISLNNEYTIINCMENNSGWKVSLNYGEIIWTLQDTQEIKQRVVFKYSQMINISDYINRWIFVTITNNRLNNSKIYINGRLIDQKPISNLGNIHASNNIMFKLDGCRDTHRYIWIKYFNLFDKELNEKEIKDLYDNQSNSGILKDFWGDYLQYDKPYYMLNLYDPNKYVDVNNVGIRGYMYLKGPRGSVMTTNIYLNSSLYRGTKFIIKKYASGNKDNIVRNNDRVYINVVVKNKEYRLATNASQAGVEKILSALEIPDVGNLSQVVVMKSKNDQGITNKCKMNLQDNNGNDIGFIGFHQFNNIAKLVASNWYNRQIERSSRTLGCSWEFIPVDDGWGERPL
Take SNKTRTDEANQRATKM [[1–16]]: the “Relative Rate” value is 1.17.

Take SNKTRIDEANBRATKML [Peptide Q11B]: the “Relative Rate” value was 0.25 and the “relative rate of proteolysis” value is recorded as 0.25. Consider SNKTRIDEANQRATKML [[1–17]], for which the “Relative Rate” value is listed as 1.00.

In the case of SNKTRIDEANARATKML [Peptide Q11A], the “Relative Rate” value is recorded as 0.19 and the “relative rate of proteolysis” value is 0.19.

For SNKTRIDEANNRATKML [Peptide Q11N], the “Relative Rate” value is 0.66 and the “relative rate of proteolysis” value was 0.66.

For the sequence SNKTRINEANQRATKML [Peptide D7N], the “Relative Rate” value is listed as 0.23 and the “relative rate of proteolysis” value is 0.23. As to SNKTRIDEAAQRATKML [Peptide N10A], the “Relative Rate” value is reported as 0.06. With SNKTRIDEANQRATAML [Peptide K15A], the “Relative Rate” value is 0.12 and the “relative rate of proteolysis” value is recorded as 0.12. SNKTRIDEANQRABKML [Peptide T14B]: the “Relative Rate” value is on record as 1.20 and the “relative rate of proteolysis” value is reported as 1.20. As to SNKTRIDEANQRATKAL [Peptide M16A], the “Relative Rate” value is 0.38 and the “relative rate of proteolysis” value is reported as 0.38.

Turning to SNKTRIDEANQRASKML [Peptide T14S], the “Relative Rate” value is listed as 0.26 and the “relative rate of proteolysis” value is reported as 0.26. Take SNKTRIDQANQRATKML [Peptide E8Q]: the “Relative Rate” value is 2.08 and the “relative rate of proteolysis” value is on record as 2.08. For the sequence SNKTRIDEANQRBTKML [Peptide A13B], the “Relative Rate” value is 0.79 and the “relative rate of proteolysis” value is reported as 0.79. In the case of SNKTRIDEANQRATKXL [Peptide M16X], the “Relative Rate” value is 1.20 and the “relative rate of proteolysis” value is recorded as 1.20. SNKTRIDEANQRATK [[1–15]]: the “Relative Rate” value is reported as 0.03.

As to SNKTRIDEBNQRATKML [Peptide A9B], the “Relative Rate” value is listed as 0.38 and the “relative rate of proteolysis” value is given as 0.38.
